Assay results reported in ChEMBL document CHEMBL3244184, “Synthesis of 5-azacytidine-6-13C and -6-14C” (J Med Chem, 1977).

Key:
[1] = Drug excretion in New Zealand white rabbit urine assessed as NSC-102816 equivalent excretion at 15 mg/kg, iv after 8 hrs by liquid scintillation counting; assay type: ADME, organism-based, Oryctolagus cuniculus; design: dose 15 mg/kg, route intravenous; conditions: in vivo
[2] = Drug excretion in New Zealand white rabbit bile assessed as NSC-102816 equivalent excretion at 15 mg/kg, iv after 8 hrs by liquid scintillation counting; assay type: ADME, organism-based, Oryctolagus cuniculus; design: dose 15 mg/kg, route intravenous; conditions: in vivo

N[14c]1ncn([C@@H]2O[C@H](CO)[C@@H](O)[C@H]2O)c(=O)n1
Drug excretion [1]: 35.3 %ID | Drug excretion [2]: 1 %ID

Nc1n[14cH]n([C@@H]2O[C@H](CO)[C@@H](O)[C@H]2O)c(=O)n1
Drug excretion [1]: 2.53 %ID | Drug excretion [2]: 0.88 %ID
